Measurements: patent publication US6703362B1, “Random peptides that bind to gastro-intestinal tract (GIT) transport receptors and related methods” (Cytogen Corporation, priority 1997, dated 2004)

Key:
BSA = BSA (Bos taurus, UniProt P02769); test: Phage ELISA on BSA (background control protein); type: binding; settings: Table 5
Method: (§1) 96 well plates were coated overnight with GIT receptor, BSA and, optionally, IDE (insulin degrading enzyme, an irrelevant His-fusion protein)or hTF. The plates were 5 blocked for one hour with 0.5% BSA-PBS. After clarification, the amplified phage were diluted 1:100 in […] plus 0.05% Tween 20 in PBS and added to the plates. Following incubation of the plates on a rotator for 1 to 2 hours, the plates were washed 5 times with 1% BSA plus 0.05% Tween 20 in PBS. Dilute anti-M13-HRP conjugate (anti-M13 antibody linked to horse radish peroxidase (HRP)) was added to all the wells and the plate was incubated for one hour on a rotator. After the plates were washed 5 times, as described above, TMB substrate was added to the wells. The plates were read at 650 nm absorbance.

[1] = Isoelectric points of synthetic peptides; type: physicochemical
HPT1 = molecular target: T1, HPT1 (Homo sapiens, UniProt Q12864); test: Phage receptor ELISA on HPT1; type: binding; settings: Table 5
T1 construct: 29-273; made in house
T1 sequence (Q12864 29-273): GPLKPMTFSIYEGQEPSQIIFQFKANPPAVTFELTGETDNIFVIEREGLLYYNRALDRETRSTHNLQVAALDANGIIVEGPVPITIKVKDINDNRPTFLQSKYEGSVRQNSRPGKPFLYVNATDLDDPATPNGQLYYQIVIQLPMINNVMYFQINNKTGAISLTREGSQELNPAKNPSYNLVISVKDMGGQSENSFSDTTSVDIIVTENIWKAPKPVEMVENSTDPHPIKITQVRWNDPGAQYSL
Method: as §1

Sequence of BSA (P02769 25-607): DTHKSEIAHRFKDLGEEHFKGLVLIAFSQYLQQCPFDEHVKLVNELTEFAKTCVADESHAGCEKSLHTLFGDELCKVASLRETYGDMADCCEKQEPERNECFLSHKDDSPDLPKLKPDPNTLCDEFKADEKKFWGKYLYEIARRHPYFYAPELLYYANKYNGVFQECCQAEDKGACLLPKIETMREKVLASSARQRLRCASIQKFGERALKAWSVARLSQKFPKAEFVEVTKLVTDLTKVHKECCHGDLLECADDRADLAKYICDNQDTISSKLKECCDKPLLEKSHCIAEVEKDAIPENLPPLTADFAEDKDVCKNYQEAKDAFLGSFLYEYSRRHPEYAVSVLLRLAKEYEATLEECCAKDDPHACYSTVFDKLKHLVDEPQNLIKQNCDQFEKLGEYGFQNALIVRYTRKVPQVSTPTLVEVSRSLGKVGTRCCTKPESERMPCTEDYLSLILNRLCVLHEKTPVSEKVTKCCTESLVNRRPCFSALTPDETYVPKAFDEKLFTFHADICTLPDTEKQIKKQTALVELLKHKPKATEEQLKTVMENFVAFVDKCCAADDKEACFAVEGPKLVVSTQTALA

Sequence: SDHALGTNLRSDNAKEPGDYNCCGNGNSTGRKVFNRRRPSAIPT [HAX42]
- OD, binding to BSA (BSA): 0.071
- pI [1]: 9.62
- OD, binding to HPT1 (HPT1; phage panned on HPT-1): 0.32
- HPT/BSA (HPT1; ratio of HPT-1 to BSA binding): 5
